# Test results: US11246844B2, “Methods for inhibiting conversion of choline to trimethylamine (TMA)” (The Procter & Gamble Company, priority 2016, dated 2022)
# Where a name gives a salt, the structure may show the parent alone.
# System: Proteus mirabilis 29906 (Pm) lysate
# Assay: Inhibition of conversion of choline to TMA in Proteus mirabilis lysate (Example 2)
# Assay type: biochemical
# Details: Pm lysate 1.5 mg/mL protein, 50 μM d9-choline chloride, 37° C., two hours, d9-TMA by LC-MS/MS; read-out: TMA Inhibition (IC50, mol/L)
row,IC50 [nM],Compound
1,117000,"C#CC[N+](C)(C)CCCO [compound 28, N-(3-hydroxypropyl)-N,N-dimethylprop-2-yn-1-aminium]"
2,2400,"COC(C[N+](C)(C)CCO)OC [compound 3, N-(2-hydroxyethyl)-2,2-dimethoxy-N,N-dimethylethan-1-aminium]"
3,1810,C#CC[N+](C)(C)CC(=O)O [compound 31]
4,335000,"C[N+](C)(CC#N)CCO [compound 29, N-(cyanomethyl)-2-hydroxy-N,N-dimethylethan-1-aminium]"
5,899,"C/C=C/C[N+](C)(C)CCO [compound 32, [(E)-but-2-enyl]-(2-hydroxyethyl)-dimethyl-ammonium]"
6,1940,"C[N+](C)(CCO)CC1CO1 (centres unmarked) [compound 24, 2-hydroxy-N,N-dimethyl-N-(oxiran-2-ylmethyl)ethan-1-aminium]"
7,5310,"C#CC[N+](C)(C)CC(O)O [compound 5, N-(2,2-dihydroxyethyl)-N,N-dimethylprop-2-yn-1-aminium]"
8,21.6,"C#CC[N+](C)(C)CC(=O)O [compound 19, N-(carboxymethyl)-N,N-dimethylprop-2-yn-1-aminium]"
9,30.4,"C#CC[N+](C)(C)CCO [compound 21, N-(2-hydroxyethyl)-N,N-dimethyl-2-propyn-1-aminium]"
10,279,"C#CC[N+](C)(C)CC#N [compound 36, cyanomethyl-dimethyl-prop-2-ynyl-ammonium]"
11,525,"C#CC[N+](C)(C)CC(OC)OC [compound 4, N-(2,2-dimethoxyethyl)-N,N-dimethylprop-2-yn-1-aminium]"
12,88200,"C#CC[N+](C)(C)CC(OCC)OCC [compound 6, N-(2,2-diethoxyethyl)-N,N-dimethylprop-2-yn-1-aminium]"
13,64.4,"C=CC[N+](C)(C)CC#N [compound 35, allyl-(cyanomethyl)-dimethyl-ammonium]"
14,2.65,"C#CC[N+](C)(C)CC#C [compound 34, dimethyl-bis(prop-2-ynyl)ammonium]"
15,13.2,"C#CC[N+](C)(C)CC(=C)C(=O)OC [compound 1, 2-(methoxycarbonyl)-N,N-dimethyl-N-(prop-2-yn-1-yl)prop-2-en-1-aminium]"
16,0.463,"C#CC[N+](C)(C)CI [compound 42, iodomethyl-dimethyl-prop-2-ynyl-ammonium]"
17,87900,"C#CC[N+](CC#C)(CC#C)CC#C [compound 39, tetrakis(prop-2-ynyl)ammonium]"

row,IC50 [nM],Compound
1,31700,"C#CC[N+](CC#C)(CC#C)CCO [compound 26, N-(2-hydroxyethyl)-N,N-di(prop-2-yn-1-yl)prop-2-yn-1-aminium]"
2,110,"C#CC[N+](C)(C)CCCCC(=O)O [compound 2, 4-carboxy-N,N-dimethyl-N-(prop-2-yn-1-yl)butan-1-aminium]"
3,81000,"C#CC[N+](C)(CC#C)CC#C [compound 38, methyl-tris(prop-2-ynyl)ammonium]"
4,6710,C=CC[N+](C)(C)CCO [compound 25]
5,15700,"C#CCC[N+](C)(C)CCO [compound 16, N-(2-hydroxyethyl)-N,N-dimethylbut-3-yn-1-aminium]"
6,4.74,"C#CC[N+](C)(C)CC(=C)C#N [compound 12, 2-cyano-N,N-dimethyl-N-(prop-2-yn-1-yl)prop-2-en-1-aminium]"
7,130,"C#CC[N+](C)(C)CC(N)=O [compound 9, N-(2-amino-2-oxoethyl)-N,N-dimethylprop-2-yn-1-aminium]"
8,44.1,"C#CC[N+](C)(C)CC(=O)OC [compound 20, N-(2-methoxy-2-oxoethyl)-N,N-dimethylprop-2-yn-1-aminium]"
9,0.235,"C#CC[N+](C)(C)CBr [compound 41, bromomethyl-dimethyl-prop-2-ynyl-ammonium]"
10,76.4,"C#CC[N+](C)(C)CC(=C)C(=O)O [compound 8, 2-carboxy-N,N-dimethyl-N-(prop-2-yn-1-yl)prop-2-en-1-aminium bromide]"
11,50000,C=CC[N+](C)(C)C [compound 37]
12,63.1,"C=C(C#N)C[N+](C)(C)CCO [compound 11, 2-cyano-N-(2-hydroxyethyl)-N,N-dimethylprop-2-en-1-aminium]"
13,124000,"C#CC[N+]1(C)CCC(O)CC1 (centres unmarked) [compound 17, 4-hydroxy-1-methyl-1-(prop-2-yn-1-yl)piperidin-1-ium]"
14,216,"C#CC[N+](C)(C)CCCCCC(=O)O [compound 7, 5-carboxy-N,N-dimethyl-N-(prop-2-yn-1-yl)pentan-1-aminium]"
15,63.1,"C#CC[N+](C)(C)CC(=O)C(=O)OC [compound 13, N-(3-methoxy-2,3-dioxopropyl)-N,N-dimethylprop-2-yn-1-aminium]"
16,152,"CC#CC[N+](C)(C)CCO [compound 22, N-(2-hydroxyethyl)-N,N-dimethyl-2-butyn-1-aminium]"
17,15500,"C=C(C[N+](C)(C)CCO)C(=O)O [compound 10, 2-carboxy-N-(2-hydroxyethyl)-N,N-dimethylprop-2-en-1-aminium]"

row,Compound,IC50 [nM]
1,"C=CC[N+](CC=C)(CC=C)CC=C [compound 30, N,N,N-tri(prop-2-en-1-yl)prop-2-en-1-aminium]",694000
2,C#CC[N+](C)(C)C [compound 33],0.115
3,"C#CC[N+](C)(C)CCl [compound 40, chloromethyl-dimethyl-prop-2-ynyl-ammonium]",0.0164
4,"C#CC[N+]1(C)C2CCCC1CC2 (centres unmarked) [compound 18, 8-methyl-8-(prop-2-yn-1-yl)-8-azabicyclo[3.2.1]octan-8-ium]",1610
5,"C=CC[N+](C)(C)CC=C [compound 23, N,N-dimethyl-N-2-propenyl-2-propen-1-aminium]",3030
6,"C=C(C#N)C[N+]1(C)C2CCCC1CC2 (centres unmarked) [compound 14, 8-(2-cyanoallyl)-8-methyl-8-azabicyclo[3.2.1]octan-8-ium]",44600
7,"C#CC[N+](C)(C)CCN [compound 15, 2-aminoethyl-dimethyl-prop-2-ynyl-ammonium, hydrochloride]",3010
8,"C#CC[N+](C)(C)CCBr [compound 43, 2-bromoethyl-dimethyl-prop-2-ynyl-ammonium]",140

# Same assay, conditions: read-out: TMA Inhibition (IC50, mol/L)
row,Compound,IC50 [nM]
1,"C=CC(=O)OCC[N+](C)(C)C [compound 27, 2-(acryloyloxy)-N,N,N-trimethylethan-1-aminium]",68700

# System: plasma TMAO
# Assay: Preclinical screening method: plasma TMAO in mice on 1% Choline Added diet (Example 3)
# Assay type: in vivo, mice (C57bl/6)
# Details: Mus musculus, 24 h; mice, oral gavage once daily, 310 mg/kg/day, day 1, blood 20 hours post gavage; read-out: Remaining plasma TMAO as percentage of plasma TMAO in same day vehicle control (% of control remaining)
# Description: Starting at day 0, mice (C57bl/6, ˜19 g, 10 wk of age; n=5/group) were maintained in accordance with the NIH guidelines in a 12:12 hr light:dark cycle and provided with 1% Choline Added diet (Envigo custom formulation prepared, similar to Teklad Global Rodent Diet 2018) ad libitum. Concurrent with introduction of the diet mice were gavaged once daily orally using a 1.5″ 22G ball-tip curved feeding needle to administer compound in 200 μl or less of water at one or multiple of the dose 0, 1.0, 3.1, 10, 31, 100 or 310 mg/kg/day. Urine was collected once daily in the morning. Animals were restrained by hand and bladder was expressed by gentle palpation of the pelvic region. Aliquots of 1-5 μl of urine were centrifuged at 1,300×g for 5 min in a 1.5 mL conical bottom tube with a snap top, to precipitate any potential cellular debris, and supernatants were transferred to a clean screw-cap tube with o-ring seal and stored at −80° C. until analysis. Sixty microliters or less of blood was collected at 20 hours post gavage, into a heparinized capillary tube. Blood was kept at 4° C., then spun using a centrifuge (5 min in centrifuge designed to capillary tubes) to separate plasma and hematocrit within 4 hours after collection. Plasma samples were stored at −80° C.
# For measurement of TMA in plasma, samples were acidified (10 mM HCl final) prior to storage at −80° C. TMAO and trimethylamine (TMA) and their d9-isotopologues were quantified using stable isotope dilution HPLC with on-line electrospray ionization tandem mass spectrometry ([…]) methods as described in (Wang Z, Klipfell E, Bennett B J, et al. (2011) Gut flora metabolism of phosphatidylcholine promotes cardiovascular disease. Nature 472:57-63) using d4(1,1,2,2)-choline, d3(methyl)-TMAO, and d3(methyl)-TMA as internal standards. Concentrations of TMAO in urine were adjusted for urinary dilution by analysis of urine creatinine concentration. Samples were taken at different days during the studies and different doses were administered to avoid side effects at higher doses of some of the compounds.
row,Compound,response vs control in vivo at 310 mg/kg/day [%]
1,"C#CC[N+](C)(C)CCCCC(=O)O [4-carboxy-N,N-dimethyl-N-(prop-2-yn-1-yl)butan-1-aminium bromide]",64.4
2,"C#CC[N+](C)(C)CC(=C)C#N [2-cyano-N,N-dimethyl-N-(prop-2-yn-1-yl)prop-2-en-1-aminium bromide]",46.2
3,"C#CC[N+](C)(C)CC(=C)C(=O)OC [2-(methoxycarbonyl)-N,N-dimethyl-N-(prop-2-yn-1-yl)prop-2-en-1-aminium bromide]",69

# Same assay, conditions: Mus musculus, 72 h; mice, oral gavage once daily, 100 mg/kg/day, day 3, blood 20 hours post gavage; read-out: Remaining plasma TMAO as percentage of plasma TMAO in same day vehicle control (% of control remaining)
row,Compound,response vs control in vivo at 100 mg/kg/day [%]
1,C#CC[N+](C)(C)CC(=O)O,6.06

# Same assay, conditions: Mus musculus, 72 h; mice, oral gavage once daily, 310 mg/kg/day, day 3, blood 20 hours post gavage; read-out: Remaining plasma TMAO as percentage of plasma TMAO in same day vehicle control (% of control remaining)
row,Compound,response vs control in vivo at 310 mg/kg/day [%]
1,"C#CC[N+](C)(C)CBr [ID 41, bromomethyl-dimethyl-prop-2-ynyl-ammonium bromide]",0.23
2,"C#CC[N+](C)(C)CCO [ID 21, N-(2-hydroxyethyl)-N,N-dimethyl-2-propyn-1-aminium bromide]",0.94
3,"C#CC[N+](C)(C)CI [ID 42, iodomethyl-dimethyl-prop-2-ynyl-ammonium iodide]",0.1

# Same assay, conditions: Mus musculus, po, 24 h, read-out: Remaining plasma TMAO as percentage of plasma TMAO in same day vehicle control (% of control remaining)
row,Compound,response vs control in vivo at 310 mg/kg/day [%]
1,"C#CC[N+](C)(C)CCl [ID 40, chloromethyl-dimethyl-prop-2-ynyl-ammonium iodide]",0.43

# Same assay, conditions: Mus musculus, po, 72 h, read-out: Remaining plasma TMAO as percentage of plasma TMAO in same day vehicle control (% of control remaining)
row,Compound,response vs control in vivo at 310 mg/kg/day [%]
1,"C#CC[N+](C)(C)C [ID 33, trimethyl(prop-2-ynyl)ammonium iodide]",0.41

# System: Pseudomonas aeruginosa
# Assay: not given
# Details: growth on glycine betaine and dimethyl glycine; cited from earlier work
row,Compound,Growth of P. aeruginosa on GB and DMG
1,"C#CC[N+](C)(C)CCO [ID 21, N-(2-hydroxyethyl)-N,N-dimethyl-2-propyn-1-aminium bromide]",inhibited
